These results are taken from patent US20260200982A1, “HER RECEPTOR DERIVED PEPTIDES AND METHODS OF USE THEREOF” (Ramot at Tel-Aviv University Ltd., priority 2022, published 2026).

The star is where a group is joined. Myristoyl = CCCCCCCCCCCCCC(=O)*

One assay deals with EGFR (ErbB1). In words: Western blot analysis of dissected Panc-1 tumors, EGFR. The format is in vivo, human. To be noted: Panc-1 tumor lysates. As for the experimental part:
(§1) Pancreatic Tumor Growth in Nude Mice—The study was conducted according to the NIH Guidelines for Use and Care of Laboratory Animals and following the approval by Animal Care Committee of the Tel Aviv University. Nude CD1-Nu mice (25-30 g) housed in barrier facilities on a 12-h light/dark cycle one week prior to the injection of tumor cells (day zero). On day zero, 2×10^6 Panc 1 cells in 0.1 ml of PBS were implanted subcutaneously just above the right femoral joint. Tumor size was measured every 3-4 days. When the tumors were apparently seen and the calculated tumor size was 40 mm^3, the animals were divided randomly into two groups of mice (control vehicle treated and myr-NLS (SEQ ID NO: 5) treated; 8 mice per group). Treatment with the myr-NLS (SEQ ID NO: 5) was performed by intraperitoneal injection of 25 μg in 100 μl PBS (or 100 μl PBS for control mice) every day. Tumors size was measured 3 times a week. At the end of the experiment, the mice were sacrificed, and the tumors were dissected and used for further analysis.
Western blot analysis—Half of each tumor was homogenized in lysis buffer, using a Potter-Elvehjem manual homogenizer, cleared and kept at −70° C. The lysates (30 μg) were resolved by SDS-polyacrylamide gel electrophoresis (SDS-PAGE) and transferred to nitrocellulose membranes. The membranes were blocked with TBST buffer containing 6% milk and reacted with the indicated primary antibodies followed by second antibodies. Immunoreactive bands were detected with the enhanced chemiluminescence reagent (Luminata Crescendo Western HRP). Densitometric quantification analysis of the resulted images was done using ImageJ program.
Following, the present inventors examined whether the reduction of the tumor growth rate correlates with alterations expression and activation of the relevant proteins. To this end, lysates were prepared form the dissected tumors for protein levels evaluations. The tumor lysates were processed for western blot analysis (30 μg protein, 10% SDS polyacrylamide gel electrophoresis) and protein levels were determined using the indicated antibodies.
In general terms: In western blotting, separated proteins are transferred to a membrane and probed.

For assay [1], the system named is SKBR3 breast cancer cells. The format is cell-based, human. An excerpt:
(§2) Cell lines—Human breast cancer cell lines SKBR3 [Peles E et al. EMBO J. (1993) 12(3):961-71] and MCF7 [Faigenbloom L et al., Mol Syst Biol. (2015) 11(12):845] and human glioblastoma U87 [Goldberg L et al. Cancer Res. (2006) 66(24):11709-17] cell line, as well as Rat-1 fibroblast cells and H-Ras-transformed Rat-1 cells (EJ cells) [Marom M et al. J Biol Chem. (1995) 270(38):22263-70] and human Panc-1 and MIA PaCa-2 pancreatic cell lines (Rak R et al. Oncoscience. 2014 1(1):39-48; Weisz B et al. Oncogene (1999) 18, 2579±2588) were all grown in Dulbecco's modified Eagle's medium (DMEM; Biological Industries, Beithaemek, Israel). Human colorectal cancer cell lines DLD-1 (ATTC Cat No. CCL-221), HCT-116 (ATTC Cat No. CCL-247) and LNCaP prostate cancer cells were grown in Roswell Park Memorial Institute 1640 (RPMI 1640) medium and McCoy's 5A media, respectively (Sigma-Aldrich). All media were supplemented with antibiotics and 10% heat-inactivated fetal bovine serum (FBS; Gibco). Human breast cell line MCF10A [Bott A et al. Oncotarget. (2017) 8(27):43897-43914] was grown in Dulbeco's Modified Eagle's Medium/Nutrient Mixture F-12 HAM medium (DMEM F-12 HAM; Sigma-Aldrich), supplemented with antibiotics, 5% inactivated horse serum (HS; Invitrogen), 2 mM L-glutamine (Biological Industries, Beithaemek, Israel), 0.1 μg/ml cholera toxin (Sigma-Aldrich), 0.5 μg/ml hydrocortisone (Sigma-Aldrich), 10 μg/ml insulin (Biological Industries, Beithaemek, Israel) and 2 ng/ml EGF (R&D Systems). Cells were incubated at 37° C. in 5% CO2 in air, and the medium was changed every 3-4 days. Cells were passaged in trypsin/disodium ethylenediaminetetraacetic acid (Biological Industries, Beithaemek, Israel) when confluency reached 70%. One day prior to treatment the cells were plated at ~50% confluency in a medium supplemented with 10% FBS or 5% HS, accordingly.
(§3) Methylene blue viability assay—Cells were plated in 96-wells plates at cell densities of 1.5×10^3 (EJ, DLD-1), 3×10^3 (Rat-1, HCT-116, U87), 5×10^3 (SKBR3, MCF7) and 6×10^3 (MCF10A) cells/well. […] Cell number determination was performed as described previously. IC-50 values were calculated using a non-linear regression model (logarithmic inhibitor vs. normalized response-variable slope) with the GraphPad Prism 6 software.

The test system of the next assay is MCF7 breast cancer cells. In kind it is cell-based, human. To be noted: MCF7.
Description: as §2, §3

Assay [2] deals with MIA PaCa-2 pancreatic cancer cells. In words: Methylene blue viability assay, MIA PaCa-2. The format is cell-based, human. As to conditions: MiaPaCa2; 72 hours; FIGS. 4B and 4C; read-out: IC50 (cell viability). The source says:
(§4) Cell lines—Human breast cancer cell lines SKBR3 [Peles E et al. EMBO J. (1993) 12(3):961-71] and MCF7 [Faigenbloom L et al., Mol Syst Biol. (2015) 11(12):845] and human glioblastoma U87 [Goldberg L et al. Cancer Res. (2006) 66(24):11709-17] cell line, as well as Rat-1 fibroblast cells and H-Ras-transformed Rat-1 cells (EJ cells) [Marom M et al. J Biol Chem. (1995) 270(38):22263-70] and human Panc-1 and MIA PaCa-2 pancreatic cell lines (Rak R et al. Oncoscience. 2014 1(1):39-48; Weisz B et al. Oncogene (1999) 18, 2579±2588) were all grown in Dulbecco's modified Eagle's medium (DMEM; Biological Industries, Beithaemek, Israel). Human colorectal cancer cell lines DLD-1 (ATTC Cat No. CCL-221), HCT-116 (ATTC Cat No. CCL-247) and LNCaP prostate cancer cells were grown in Roswell Park Memorial Institute 1640 (RPMI 1640) medium and McCoy's 5A media, respectively (Sigma-Aldrich). All media were supplemented with antibiotics and 10% heat-inactivated fetal bovine serum (FBS; Gibco). Human breast cell line MCF10A [Bott A et al. Oncotarget. […]
(§5) Methylene blue viability assay—Cells were plated in 96-wells plates at cell densities of 1.5×10^3 (EJ, DLD-1), 3×10^3 (Rat-1, HCT-116, U87), 5×10^3 (SKBR3, MCF7) and 6×10^3 (MCF10A) cells/well. […] IC-50 values were calculated using a non-linear regression model (logarithmic inhibitor vs. normalized response-variable slope) with the GraphPad Prism 6 software.

In assay [3] the test system is LNCaP prostate cancer cells. In words: Methylene blue viability assay, LNCaP. In kind it is cell-based, human. To be noted: 72 hours, FIGS. 4B and 4C, read-out: IC50 (cell viability).
Description: as §4, §5

The next assay has as its system ErbB2. In words: Western blot analysis of dissected Panc-1 tumors, ErbB2. The format is in vivo, human. As to conditions: Panc-1 tumor lysates; FIGS. 10A-C. How it is done:
as §1
(§6) Western blot analysis—Half of each tumor was homogenized in lysis buffer, using a Potter-Elvehjem manual homogenizer, cleared and kept at −70° C. […] Immunoreactive bands were detected with the enhanced chemiluminescence reagent (Luminata Crescendo Western HRP). Densitometric quantification analysis of the resulted images was done using ImageJ program. […]

In the next assay the test system is Akt. The assay is described as follows: Western blot analysis of dissected Panc-1 tumors, Akt. The format is in vivo, human. As to conditions: Panc-1 tumor lysates; FIGS. 10A-C. As for the experimental part:
as §1, §6

On to “Myr-RRRHIVRKRTLRRLL-OH (Myristoyl-RRRHIVRKRTLRRLL-OH; SMILES CCCCCCCCCCCCCC(=O)N[C@@H](CCCNC(=N)N)C(=O)N[C@@H](CCCNC(=N)N)C(=O)N[C@@H](CCCNC(=N)N)C(=O)N[C@@H](Cc1c[nH]cn1)C(=O)N[C@H](C(=O)N[C@H](C(=O)N[C@@H](CCCNC(=N)N)C(=O)N[C@@H](CCCCN)C(=O)N[C@@H](CCCNC(=N)N)C(=O)N[C@H](C(=O)N[C@@H](CC(C)C)C(=O)N[C@@H](CCCNC(=N)N)C(=O)N[C@@H](CCCNC(=N)N)C(=O)N[C@@H](CC(C)C)C(=O)N[C@@H](CC(C)C)C(=O)O)[C@@H](C)O)C(C)C)[C@@H](C)CC) [myr-NLS]”, for which the “ratio between EGFR and its phosphorylation state (activation of the EGFR)” value in the assay with EGFR (ErbB1) (FIG. 10C) was “affected the activation of the EGFR”. Further, the “expression levels of EGFR in tumors” value with EGFR (ErbB1) (FIGS. 10A-C) is reported as “reduced”. Besides, in the assay with EGFR (ErbB1) (FIGS. 10A-C), the “levels of phosphorylated EGFR in tumors” value is on record as “reduced”. Further, the “viability of SKBR3 breast cancer cells” value in assay [1] (80 μM peptide for 72 hours, FIG. 4A) is “significantly reduced viability”. Further, the IC50 (usually the midpoint of a concentration-inhibition curve) in assay [1] (SKBR3, 72 hours, FIGS. 4B and 4C, read-out: IC50 (cell viability)) was 20.6 µM; in the assay with MCF7 breast cancer cells (72 hours, FIGS. 4B and 4C, read-out: IC50 (cell viability)) it was 23.5 µM; in assay [2], 3.95 µM; in assay [3], 7.6 µM. Also, the “effect on viability as compared to non-transformed MCF10 cells” value in assay [1] (SKBR3, FIG. 4C) was “much more pronounced”; in the assay with MCF7 breast cancer cells (FIG. 4C), “much more pronounced”. The “levels of total ErbB2 in tumors” value with ErbB2 was “reduced”. Besides, the “phosphorylated ErbB2 expression in tumors” value in the assay with ErbB2 was “reduced”. In addition, the “Akt levels in tumors” value with Akt was “significant reduction”.
